pEC50, pIC50: −log10 of the molar value. Where two headings read alike, the source gives them in different places.
Key:
U937 [1] = test: Secondary dose-response HTS, Cell Titer Glo; assay type: cell-based, human; details: Homo sapiens, U-937
ML2 = test: Secondary dose-response HTS, Cell Titer Glo; assay type: cell-based, human; details: Homo sapiens; secondary high-throughput screen; ML-2; read-out: average effective concentration, ML-2
CMS [2] = test: Secondary dose-response HTS, Cell Titer Glo; assay type: cell-based, human; details: Homo sapiens
CHRF288-11 [3] = test: Secondary dose-response HTS, Cell Titer Glo; assay type: cell-based, human; details: Homo sapiens
[4] = test system: panel of 8 AML cell lines; test: Secondary dose-response HTS, whole panel; assay type: cell-based, human; details: secondary HTS (Supplementary Data 2)
M07e [5] = test: Secondary dose-response HTS, Cell Titer Glo; assay type: cell-based, human; details: Homo sapiens, M-07e
M07e [6] = test: cells; set-up: species or system AML cell lines (8); Secondary HTS, 10-point dose-response in triplicate, Cell Titer Glo viability, four-parameter fit EC50; details: M-07e, 72 h, read-out: M07e
CMK [7] = test: cells; set-up: species or system AML cell lines (8); Secondary HTS, 10-point dose-response in triplicate, Cell Titer Glo viability, four-parameter fit EC50; details: Homo sapiens, CMK, 72 h, read-out: CMK
[8] = test system: FLT3-ITD+ primary AML blast samples
MOLM-13 [9] = test: Secondary dose-response HTS, Cell Titer Glo; assay type: cell-based, human; details: Homo sapiens, MOLM-13
MV4-11 [10] = test: cells; set-up: species or system AML cell lines (8); Secondary HTS, 10-point dose-response in triplicate, Cell Titer Glo viability, four-parameter fit EC50; details: Homo sapiens, MV4-11, 72 h, read-out: MV4-11
CHRF288-11 [11] = test: cells; set-up: species or system AML cell lines (8); Secondary HTS, 10-point dose-response in triplicate, Cell Titer Glo viability, four-parameter fit EC50; details: 72 h, read-out: CHRF288-11
ML-2 [12] = test: cells; set-up: species or system AML cell lines (8); Secondary HTS, 10-point dose-response in triplicate, Cell Titer Glo viability, four-parameter fit EC50; details: Homo sapiens, ML-2, 72 h, read-out: ML-2
U937 [13] = test: cells; set-up: species or system AML cell lines (8); Secondary HTS, 10-point dose-response in triplicate, Cell Titer Glo viability, four-parameter fit EC50; details: Homo sapiens, U-937, 72 h, read-out: U937
[14] = test system: MLLr primary AML blast samples; test: Ex vivo drug treatment of primary AML blasts on mesenchymal stromal cells; assay type: cell-based; details: Homo sapiens; primary blasts on MSC, 96 h, range over patient samples
[15] = test system: AMKL primary AML blast samples; test: as above; assay type: cell-based; details: Homo sapiens; primary blasts on MSC, 96 h
CMK [16] = test: Secondary dose-response HTS, Cell Titer Glo; assay type: cell-based, human; details: Homo sapiens, CMK
MV4-11 [17] = test: Secondary dose-response HTS, Cell Titer Glo; assay type: cell-based, human; details: Homo sapiens, MV4-11
ML-2 [18] = assay type: cell-based; details: Homo sapiens, 72 h, Cell Titer Glo
MOLM-13 [19] = assay type: cell-based; details: Homo sapiens, 72 h, Cell Titer Glo
U937 [20] = assay type: cell-based; details: Homo sapiens, U-937; 72 h, Cell Titer Glo
CMS [21] = assay type: cell-based; details: Homo sapiens, 72 h, read-out: IC50 CMS
MV4-11 [22] = assay type: cell-based; details: Homo sapiens, 72 h, Cell Titer Glo
CHRF288-11 [23] = assay type: cell-based; details: Homo sapiens; 72 h, Cell Titer Glo; read-out: IC50 CHRF288-11
THP-1 = assay type: cell-based; details: Homo sapiens, 72 h, Cell Titer Glo
[24] = secondary high-throughput screen, U937, read-out: average effective concentration, U937
[25] = HTS, secondary high-throughput screen, CMS, read-out: average effective concentration, CMS
[26] = HTS, secondary high-throughput screen, CHRF288-11, read-out: average effective concentration, CHRF288-11
[27] = secondary high-throughput screen, M07e, read-out: average effective concentration, M07e
[28] = secondary high-throughput screen, read-out: average effective concentration, MOLM-13
[29] = secondary HTS, 72 h, average of triplicate, read-out: EC50 U937
[30] = secondary HTS, 72 h, average of triplicate, read-out: EC50 CMK
[31] = secondary high-throughput screen, read-out: average effective concentration, CMK
[32] = secondary HTS, 72 h, average of triplicate, read-out: EC50 MOLM-13
[33] = secondary HTS, 72 h, average of triplicate, read-out: EC50 CMS
[34] = secondary HTS, 72 h, average of triplicate, read-out: EC50 CHRF288-11
[35] = secondary HTS, 72 h, average of triplicate, read-out: EC50 MV4-11
[36] = secondary high-throughput screen, read-out: average effective concentration, MV4-11
[37] = secondary HTS, 72 h, average of triplicate, read-out: EC50 M07e

SMILES | pEC50 (U937 [1]; [24]) | pIC50 [8] | pEC50 (MOLM-13 [9]; [28]) | pIC50 [14] | pIC50 [15] | pEC50 (U937 [1]; [29]) | pEC50 (MOLM-13 [9]; [32]) | pEC50 (MV4-11 [17]; [35]) | pEC50 (MV4-11 [17]; [36]) | pEC50 (ML2) | pEC50 (CMS [2]; [25]) | pEC50 (CHRF288-11 [3]; [26]) | active cell lines out of 8 in HTS [4] | pEC50 (M07e [5]; [27]) | pEC50 (CMK [16]; [30]) | pEC50 (CMK [16]; [31]) | pEC50 (CMS [2]; [33]) | pEC50 (CHRF288-11 [3]; [34]) | pEC50 (M07e [5]; [37]) | pIC50 (ML-2 [18]) | further results
COc1cc(Nc2ncc3c(n2)-c2ccc(Cl)cc2C(c2c(F)cccc2OC)=NC3)ccc1C(=O)O [Alisertib] | – | 5.50 to 8.06 | 5.08 | 5.37 to 6.98 | 6.36 | – | – | – | – | – | 5.40 | – | 4/8 | – | – | – | – | – | – | – | pEC50 (M07e [6]): < 5.00; pEC50 (CMK [7]): 8.68; pEC50 (MV4-11 [10]): < 5.00; pEC50 (CHRF288-11 [11]): < 5.00; pEC50 (ML-2 [12]): < 5.00; pEC50 (U937 [13]): < 5.00
CC(C)C[C@H](NC(=O)[C@H](CCc1ccccc1)NC(=O)CN1CCOCC1)C(=O)N[C@@H](Cc1ccccc1)C(=O)N[C@@H](CC(C)C)C(=O)[C@@]1(C)CO1 [Carfilzomib, reference compound] | – | 7.21 to 8.22 | 8.26 | 7.28 to 8.37 | 7.27 | 8.00 | 8.00 | 9.00 | 8.96 | – | – | 7.72 | – | 8.85 | 8.00 | 8.22 | 9.00 | 7.70 | 9.00 | – | –
Nc1nc(Cl)nc2c1ncn2[C@@H]1O[C@H](CO)[C@@H](O)[C@@H]1F [Clofarabine, clofarabine, reference compound] | 7.06 | – | 7.33 | – | – | 7.05 | 7.30 | 6.82 | – | – | 7.74 | – | – | 7.89 | 8.30 | – | 7.70 | 6.43 | 8.00 | 6.76 | pIC50 (MOLM-13 [19]): 7.43; pIC50 (U937 [20]): 7.25; pIC50 (CMS [21]; Cell Titer Glo): 7.10; pIC50 (MV4-11 [22]): 7.15; pIC50 (CHRF288-11 [23]): 6.48; pIC50 (THP-1): 7.05
CC(=O)O[C@@]12CO[C@@H]1C[C@H](O)[C@@]1(C)C(=O)[C@H](O)C3=C(C)[C@@H](OC(=O)[C@H](O)[C@@H](NC(=O)OC(C)(C)C)c4ccccc4)C[C@@](O)([C@@H](OC(=O)c4ccccc4)[C@H]21)C3(C)C [Docetaxel, docetaxel, reference compound] | 9.00 | – | 9.00 | – | – | – | – | – | 9.00 | – | – | 6.30 | – | 9.00 | – | – | – | – | – | 8.82 | pEC50 (CMK [16]; read-out: average effective concentration, CMK): 9.00; pIC50 (MOLM-13 [19]): 8.66; pIC50 (U937 [20]): 8.68; pEC50 (CMS [2]; HTS, read-out: average effective concentration, CMS): 8.36; pIC50 (CMS [21]): 7.70; pIC50 (MV4-11 [22]): 8.52; pIC50 (CHRF288-11 [23]): 7.97; pIC50 (THP-1): 8.49

Now from value to compound, other results behind:

pEC50 (U937 [1]; [24]) | pIC50 [8] | pEC50 (MOLM-13 [9]; [28]) | pIC50 [14] | pIC50 [15] | pEC50 (U937 [1]; [29]) | pEC50 (MOLM-13 [9]; [32]) | pEC50 (MV4-11 [17]; [35]) | pEC50 (MV4-11 [17]; [36]) | SMILES | pEC50 (ML2) | pEC50 (CMS [2]; [25]) | pEC50 (CHRF288-11 [3]; [26]) | active cell lines out of 8 in HTS [4] | pEC50 (M07e [5]; [27]) | pEC50 (CMK [16]; [30]) | pEC50 (CMK [16]; [31]) | pEC50 (CMS [2]; [33]) | pEC50 (CHRF288-11 [3]; [34]) | pEC50 (M07e [5]; [37]) | pIC50 (ML-2 [18]) | further results
9.00 | – | – | – | – | – | – | – | – | CON(C)C(=O)N1N=C(c2cc(F)ccc2F)S[C@@]1(CCCN)c1ccccc1 [ARRY-520, reference compound] | 9.00 | 9.00 | 9.00 | 3/8 | 9.00 | – | – | – | – | – | – | –
6.34 | – | 6.43 | – | < 5.00 | – | – | – | 6.68 | C=CCn1c(=O)c2cnc(Nc3ccc(N4CCN(C)CC4)cc3)nc2n1-c1cccc(C(C)(C)O)n1 [MK-1775, reference compound] | 6.68 | 6.20 | 5.00 | 7/8 | – | – | 6.68 | – | – | – | – | –
